In patent US20110045101A1, “FUNGICIDAL SUBSTITUTED AZOLES” (E.I. Du Pont De Nemours and Company, priority 2009, published 2011):
Marks after values point to notes of the source that are not given here.

Tests used:
Type in all cases: in vivo
Septoria tritici = assay: Test G: wheat leaf blotch on wheat seedlings, sprayed the day before inoculation, visual disease rating; settings: 100 = 100% disease control; for pest or weed control at 200 ppm: Zymoseptoria tritici, 504 h
Procedure, shortened: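 Spray to run-off, 200 ppm (≈500 g/ha; starred = 40 ppm), acetone/water 50/50 + 250 ppm Trem® 014. Spore inoculation +1 d. 24° C saturated 48 h → 20° C 19 d. Visual rating.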

[1] = test system: Erysiphe graminis f. sp. tritici; assay: Test J: wheat powdery mildew on wheat seedlings, sprayed the day before inoculation, visual disease rating; settings: 100 = 100% disease control; for pest or weed control at 200 ppm: Blumeria graminis, 168 h
Procedure, shortened: (§1)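 Compounds were dissolved in acetone (3% of final volume), then suspended in 50/50 acetone/purified water with 250 ppm Trem® 014 surfactant. Suspensions at 200 ppm (some at 40 ppm) were sprayed to run-off, 200 ppm being equivalent to 500 g/ha.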

[2] = test system: Puccinia recondita f. sp. tritici; assay: Test H: wheat leaf rust, test suspension sprayed after inoculation of wheat seedlings, visual disease rating; settings: 100 = 100% disease control; for pest or weed control at 200 ppm: Puccinia recondita, 96 h
Description: General protocol for preparing test suspensions for Tests A-J: The test compounds were first dissolved in acetone in an amount equal to 3% of the final volume and then suspended at the desired concentration (in ppm) in acetone and purified water (50/50 mix) containing 250 ppm of the surfactant Trem® 014 (polyhydric alcohol esters). The resulting test suspensions were then used in tests A-J. Spraying a 200 ppm test suspension to the point of run-off on the test plants was the equivalent of a rate of 500 g/ha. […] Wheat seedlings were inoculated with a spore suspension of Puccinia recondita f. sp. tritici (the causal agent of wheat leaf rust) and incubated in a saturated atmosphere at 20° C. for 24 h, and then moved to a growth chamber at 20° C. for 2 days. […] A dash (-) indicates no test results. All results are for 200 ppm except where followed by “*”, which indicates 40 ppm.

[3] = test system: Puccinia recondita f. sp. tritici; assay: Test I: wheat leaf rust on wheat seedlings, sprayed the day before inoculation, visual disease rating; settings: 100 = 100% disease control; for pest or weed control at 200 ppm: Puccinia recondita, 168 h
Procedure, shortened: as §1

Alternaria solani = assay: Test D: tomato early blight, sprayed the day before inoculation, visual disease rating; settings: 100 = 100% disease control; for pest or weed control at 200 ppm: Alternaria solani, 168 h
Procedure, shortened: as §1

Botrytis cinerea = assay: Test C: tomato Botrytis on tomato seedlings, sprayed the day before inoculation, visual disease rating; settings: 100 = 100% disease control; for pest or weed control at 200 ppm: Botrytis cinerea, 120 h
Procedure, shortened: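 Compounds were dissolved in acetone (3% of final volume), then suspended in 50/50 acetone/purified water containing 250 ppm polyhydric alcohol ester surfactant. Suspensions were sprayed to run-off on tomato seedlings at 200 ppm, equivalent to 500 g/ha, or at 40 ppm where marked.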

Septoria nodorum = assay: Test F: wheat glume blotch on wheat seedlings, sprayed the day before inoculation, visual disease rating; settings: 100 = 100% disease control; for pest or weed control at 200 ppm: Parastagonospora nodorum, 264 h
Procedure, shortened: as §1

[4] = 200 ppm, 0 = no control relative to controls

Row | Compound | Test G disease control rating (Septoria tritici; [4]) | Test J disease control rating [1, 4] | Test I disease control rating [3, 4] | Test D disease control rating (Alternaria solani; [4]) | Test C disease control rating (Botrytis cinerea; [4]) | Test F disease control rating (Septoria nodorum; [4]) | also measured
1 | 3-[4-[4-chloro-2-methyl-1-(4-methylphenyl)-1H-imidazol-5-yl]-3,5-difluorophenoxy]-N-methyl-1-propanamide hydrochloride [Compound 734] | 99% | 95% | 100% | 99% | 100% | 99% | Test H disease control rating [2, 4]: 41%
2 | 5-[4-chloro-5-(2,6-difluoro-4-methoxyphenyl)-1H-imidazol-1-yl]-2-(trifluoromethyl)pyridine [Example 34] |  |  |  |  |  |  | Test G disease control rating (Septoria tritici; 40 ppm (marked *)): 90* %; Test J disease control rating ([1]; 40 ppm (marked *)): 100* %; Test H disease control rating ([2]; 40 ppm (marked *)): 91* %; Test I disease control rating ([3]; 40 ppm (marked *)): 100* %; Test D disease control rating (Alternaria solani; 40 ppm (marked *)): 100* %; Test C disease control rating (Botrytis cinerea; 40 ppm (marked *)): 99* %; Test F disease control rating (Septoria nodorum; 40 ppm (marked *)): 99* %
3 | COc1cc(F)c(-c2c(Cl)nc(C=O)n2-c2ccc(F)cc2)c(F)c1 [Compound 276, 4-chloro-5-(2,6-difluoro-4-methoxyphenyl)-1-(4-fluorophenyl)-1H-imidazole-2-carboxaldehyde] |  |  |  |  |  |  | pest or weed control at 200 ppm (Septoria tritici; 200 ppm, 0 = no control): 92%; pest or weed control at 200 ppm ([1]; 200 ppm, 0 = no control): 100%; pest or weed control at 200 ppm ([2]; 200 ppm, 0 = no control): 9%; pest or weed control at 200 ppm ([3]; 200 ppm, 0 = no control): 98%; pest or weed control at 200 ppm (Alternaria solani; 200 ppm, 0 = no control): 100%; pest or weed control at 200 ppm (Botrytis cinerea; 200 ppm, 0 = no control): 100%; pest or weed control at 200 ppm (Septoria nodorum; 200 ppm, 0 = no control): 0%
4 | COc1cc(F)c(-c2c(Cl)nc(CO)n2-c2ccc(F)cc2)c(F)c1 [Compound 298, 4-chloro-5-(2,6-difluoro-4-methoxyphenyl)-1-(4-fluorophenyl)-1H-imidazole-2-methanol] |  |  |  |  |  |  | pest or weed control at 200 ppm (Septoria tritici; [4]): 96%; pest or weed control at 200 ppm [1, 4]: 0%; pest or weed control at 200 ppm [2, 4]: 0%; pest or weed control at 200 ppm [3, 4]: 98%; pest or weed control at 200 ppm (Alternaria solani; [4]): 100%; pest or weed control at 200 ppm (Botrytis cinerea; [4]): 100%; pest or weed control at 200 ppm (Septoria nodorum; [4]): 0%
5 | Cc1nn(C)c(Cc2ccc(F)cc2F)c1-c1ccc(F)cc1Cl [Compound 313, 4-(2-chloro-4-fluorophenyl)-5-[(2,4-difluorophenyl)methyl]-1,3-dimethyl-1H-pyrazole] |  |  |  |  |  |  | pest or weed control at 200 ppm [1, 4]: 99%; pest or weed control at 200 ppm [2, 4]: 95%; pest or weed control at 200 ppm [3, 4]: 100%; pest or weed control at 200 ppm (Alternaria solani; [4]): 100%; pest or weed control at 200 ppm (Botrytis cinerea; [4]): 99%; pest or weed control at 200 ppm (Septoria nodorum; [4]): 0%
6 | COc1cc(F)c(-c2c(Cl)nc(C)n2-c2ccc(SC#N)cc2)c(F)c1 [Compound 741, 4-[4-chloro-5-(2,6-difluoro-4-methoxyphenyl)-2-methyl-1H-1-yl]phenyl thiocyanate] |  | 72% | 99% | 99% | 100% | 92% | Test H disease control rating [2, 4]: 0%
7 | Cc1nc(C)n(-c2ccc(Cl)cc2)c1-c1c(F)cc(F)cc1F [compound 45] |  | 100% | 100% | 98% | 100% | 100% | Test H disease control rating [2, 4]: 99%
8 | Cc1nn(C)c(Cc2cccc(F)c2)c1-c1ccc(F)cc1Cl [compound 311] |  | 95% | 99% | 9% | 98% | 0% | Test H disease control rating [2, 4]: 100%
9 | Cc1nn(C)c(Cc2ccc(F)cc2)c1-c1ccc(F)cc1Cl [compound 312] |  | 92% | 99% | 82% | 99% | 0% | Test H disease control rating [2, 4]: 9%
10 | Cc1ncn(-c2c(F)cc(F)cc2F)c1-c1ccc(Cl)cc1 [compound 447] | 30% | 81% | 0% | 80% | 94% | 0% | 
11 | COc1ccc(F)c(-c2c(Cl)ncn2-c2ccc(I)cc2)c1F [compound 448] | 98% | 98% | 95% | 100% | 97% | 89% | 
12 | COc1ccc(F)c(-c2c(Br)ncn2-c2ccc(Cl)cc2)c1F [compound 449] | 97% | 100% | 99% | 100% | 99% | 99% | 
13 | Cc1c(CCl)sc(-c2cnc(Cl)n2-c2ccc(Cl)cc2)c1Cl [compound 451] | 82% | 0% | 19% | 0% | 0% | 0% | 
14 | Cc1cc(-c2cnc(Cl)n2-c2ccc(Cl)cc2)sc1CCl [compound 452] | 86% | 76% | 86% | 0% | 55% | 0% | 
15 | COc1cc(F)c(-c2c(Cl)nc(Cl)n2-c2cccc(Cl)c2)c(F)c1 [compound 453] | 93% | 100% | 100% | 100% | 99% |  | Test F disease control rating (Septoria nodorum; 40 ppm (marked *)): 90* %
16 | COc1cc(F)c(-c2c(Cl)nc(Cl)n2-c2ccc(F)c(F)c2)c(F)c1 [compound 454] | 93% | 100% | 100% | 100% | 77% | 33% | 
17 | Fc1cc(-n2c(Cl)nc(Cl)c2-c2ccncc2F)ccc1Cl [compound 455] | 95% | 68% | 99% | 95% | 99% | 0% | 
18 | COc1nc(Cl)c(-c2c(Cl)nc(Cl)n2-c2ccc(Cl)c(F)c2)s1 [compound 456] | 88% | 43% | 0% | 0% | 0% | 0% | 
19 | Fc1cc(-n2c(Cl)nc(Cl)c2-c2cccnc2Cl)ccc1Cl [compound 458] | 92% | 89% | 95% | 16% | 96% | 0% | 
20 | Fc1cc(F)c(-c2c(Cl)nc(Cl)n2-c2cccc(OC(F)F)c2)c(F)c1 [compound 597] | 98% | 100% |  | 100% | 100% | 97% | Test H disease control rating [2, 4]: 99%
21 | COc1cc(F)c(-c2c(Cl)nc(Br)n2-c2ccc(Cl)nc2)c(F)c1 [compound 729] | 99% | 100% | 100% | 100% | 100% | 99% | 
